Experiments:
potassium arsenate = compound: O=[As]([O-])(O)O.[K+] [potassium arsenate]; test: thermal stability z-score vs DMSO; higher = more thermally stabilized by treatment; conditions: HeLa; arsenate concentration 1 mM
Description: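 Cellular thermal proteome profiling in HeLa cells treated with 1 mM arsenate for 1 h (DMSO pretreatment), heated to ten temperatures (37-66.3 °C). Soluble protein was quantified by TMT mass spectrometry relative to DMSO controls; the thermal stability score was transformed to a z-score; mean of n = 3 experiments.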

lipoamide = compound: NC(=O)CCCCC1CCSS1 [lipoamide]; test: as above; conditions: HeLa, lipoamide concentration 100 µM
Description: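 Cellular thermal proteome profiling in HeLa cells. Cells were treated with 100 µM lipoamide for 1 h, with or without 1 mM arsenate for a further 1 h, then heated to ten temperatures (37-66.3 °C), and soluble protein was quantified by TMT mass spectrometry relative to 0.1% DMSO controls. The thermal stability score (sum of log2 fold changes minus the abundance score) was transformed to a z-score; mean of n = 3 experiments.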

[1] = arsenate co-treatment: 1 mM arsenate 1 h
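Further: each temperature applied for 3 min, abundance score taken as mean log2 fold change at the two lowest temperatures, z-score obtained by mean subtraction and division by SD.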

UniProt Q8NBJ9, sequence (Q8NBJ9 whole entry): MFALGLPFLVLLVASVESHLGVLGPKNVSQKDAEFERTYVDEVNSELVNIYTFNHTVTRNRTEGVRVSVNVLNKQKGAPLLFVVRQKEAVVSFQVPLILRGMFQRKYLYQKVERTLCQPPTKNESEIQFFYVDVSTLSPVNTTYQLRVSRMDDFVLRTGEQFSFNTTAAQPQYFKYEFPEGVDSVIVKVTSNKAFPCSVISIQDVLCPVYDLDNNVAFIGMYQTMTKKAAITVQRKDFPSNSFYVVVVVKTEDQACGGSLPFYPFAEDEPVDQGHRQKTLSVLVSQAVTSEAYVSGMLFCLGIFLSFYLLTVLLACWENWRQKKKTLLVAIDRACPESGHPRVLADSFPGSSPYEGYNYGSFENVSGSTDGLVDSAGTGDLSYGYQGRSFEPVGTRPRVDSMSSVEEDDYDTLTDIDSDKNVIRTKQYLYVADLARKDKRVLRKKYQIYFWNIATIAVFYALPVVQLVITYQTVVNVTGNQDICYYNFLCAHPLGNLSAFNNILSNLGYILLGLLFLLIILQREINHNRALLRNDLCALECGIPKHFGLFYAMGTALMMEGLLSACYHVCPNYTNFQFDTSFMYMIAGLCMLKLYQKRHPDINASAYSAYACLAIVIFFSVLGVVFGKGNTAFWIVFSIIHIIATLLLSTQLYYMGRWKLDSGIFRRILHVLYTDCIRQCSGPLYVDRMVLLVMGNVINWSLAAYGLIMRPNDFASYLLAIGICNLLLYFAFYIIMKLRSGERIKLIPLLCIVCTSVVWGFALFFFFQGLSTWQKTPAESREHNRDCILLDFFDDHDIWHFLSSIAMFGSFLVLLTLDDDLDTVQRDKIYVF
UniProt O14977, sequence (O14977 whole entry): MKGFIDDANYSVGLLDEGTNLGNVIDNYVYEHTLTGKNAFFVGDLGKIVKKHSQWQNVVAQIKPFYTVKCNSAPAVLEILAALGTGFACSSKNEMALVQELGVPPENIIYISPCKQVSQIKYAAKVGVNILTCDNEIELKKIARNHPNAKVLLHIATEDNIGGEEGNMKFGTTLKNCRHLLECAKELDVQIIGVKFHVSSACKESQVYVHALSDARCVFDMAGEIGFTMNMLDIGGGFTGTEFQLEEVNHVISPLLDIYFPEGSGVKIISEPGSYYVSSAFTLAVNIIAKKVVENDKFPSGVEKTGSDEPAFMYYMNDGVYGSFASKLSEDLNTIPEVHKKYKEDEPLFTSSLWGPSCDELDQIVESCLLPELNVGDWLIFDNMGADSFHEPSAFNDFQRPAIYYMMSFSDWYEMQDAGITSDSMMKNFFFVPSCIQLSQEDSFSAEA
UniProt Q92974, sequence (Q92974 whole entry): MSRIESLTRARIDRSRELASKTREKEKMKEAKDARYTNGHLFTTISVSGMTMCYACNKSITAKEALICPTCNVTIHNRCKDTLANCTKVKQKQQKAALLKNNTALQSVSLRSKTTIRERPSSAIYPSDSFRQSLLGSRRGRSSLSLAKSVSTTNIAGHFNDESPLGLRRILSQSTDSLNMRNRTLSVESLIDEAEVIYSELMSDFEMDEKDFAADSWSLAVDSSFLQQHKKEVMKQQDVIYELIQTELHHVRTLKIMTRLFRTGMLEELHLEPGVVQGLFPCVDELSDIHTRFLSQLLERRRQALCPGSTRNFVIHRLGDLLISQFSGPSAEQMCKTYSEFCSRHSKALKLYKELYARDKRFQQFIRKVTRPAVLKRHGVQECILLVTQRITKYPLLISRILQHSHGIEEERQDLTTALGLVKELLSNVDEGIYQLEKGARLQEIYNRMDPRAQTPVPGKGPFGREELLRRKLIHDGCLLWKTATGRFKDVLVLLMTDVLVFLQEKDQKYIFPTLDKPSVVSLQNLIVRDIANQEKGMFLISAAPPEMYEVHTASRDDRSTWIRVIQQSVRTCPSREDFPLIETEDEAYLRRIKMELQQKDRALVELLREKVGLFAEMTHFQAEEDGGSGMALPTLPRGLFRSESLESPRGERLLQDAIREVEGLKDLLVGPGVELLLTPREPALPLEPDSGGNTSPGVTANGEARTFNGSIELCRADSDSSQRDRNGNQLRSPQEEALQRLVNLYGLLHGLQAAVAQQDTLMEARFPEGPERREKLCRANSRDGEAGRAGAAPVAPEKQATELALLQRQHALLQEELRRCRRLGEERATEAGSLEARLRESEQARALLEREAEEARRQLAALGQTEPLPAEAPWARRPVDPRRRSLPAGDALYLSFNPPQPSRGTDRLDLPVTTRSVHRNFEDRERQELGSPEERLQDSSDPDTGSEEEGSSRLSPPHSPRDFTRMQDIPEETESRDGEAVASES
UniProt Q9GZN1, sequence (Q9GZN1 whole entry): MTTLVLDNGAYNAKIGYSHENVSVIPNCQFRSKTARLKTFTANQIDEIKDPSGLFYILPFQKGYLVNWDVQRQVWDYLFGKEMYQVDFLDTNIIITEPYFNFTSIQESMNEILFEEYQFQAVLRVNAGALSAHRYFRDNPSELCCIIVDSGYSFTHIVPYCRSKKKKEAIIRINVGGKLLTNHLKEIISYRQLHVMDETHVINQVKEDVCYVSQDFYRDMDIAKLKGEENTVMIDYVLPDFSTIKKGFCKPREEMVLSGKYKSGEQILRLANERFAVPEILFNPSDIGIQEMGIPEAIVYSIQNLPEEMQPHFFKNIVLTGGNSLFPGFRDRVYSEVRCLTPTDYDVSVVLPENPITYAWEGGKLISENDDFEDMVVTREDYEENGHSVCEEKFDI
UniProt Q7Z4W1, sequence (Q7Z4W1 whole entry): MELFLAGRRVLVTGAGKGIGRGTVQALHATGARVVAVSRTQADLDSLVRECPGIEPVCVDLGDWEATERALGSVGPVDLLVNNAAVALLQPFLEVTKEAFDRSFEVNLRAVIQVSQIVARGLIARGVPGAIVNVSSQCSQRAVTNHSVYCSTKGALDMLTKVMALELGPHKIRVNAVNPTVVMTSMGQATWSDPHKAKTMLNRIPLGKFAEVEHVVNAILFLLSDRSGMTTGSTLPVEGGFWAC
UniProt P16435, sequence (P16435 whole entry): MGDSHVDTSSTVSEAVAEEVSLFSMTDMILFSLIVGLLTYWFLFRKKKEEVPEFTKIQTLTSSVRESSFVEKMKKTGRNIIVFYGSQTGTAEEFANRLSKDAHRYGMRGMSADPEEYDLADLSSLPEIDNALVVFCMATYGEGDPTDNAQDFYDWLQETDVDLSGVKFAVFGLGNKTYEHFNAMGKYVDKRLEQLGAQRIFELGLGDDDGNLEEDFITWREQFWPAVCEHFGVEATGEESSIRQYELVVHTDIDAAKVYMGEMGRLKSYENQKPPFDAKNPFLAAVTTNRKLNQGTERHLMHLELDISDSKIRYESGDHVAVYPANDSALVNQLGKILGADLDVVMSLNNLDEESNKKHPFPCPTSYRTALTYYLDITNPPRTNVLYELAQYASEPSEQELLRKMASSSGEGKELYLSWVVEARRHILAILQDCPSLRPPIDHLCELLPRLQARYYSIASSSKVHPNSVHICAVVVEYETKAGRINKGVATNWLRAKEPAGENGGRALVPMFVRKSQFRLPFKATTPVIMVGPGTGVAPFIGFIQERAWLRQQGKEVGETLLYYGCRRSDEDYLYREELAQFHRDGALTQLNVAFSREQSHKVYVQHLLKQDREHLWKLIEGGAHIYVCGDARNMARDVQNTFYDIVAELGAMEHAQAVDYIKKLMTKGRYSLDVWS
UniProt P49916, sequence (P49916 whole entry): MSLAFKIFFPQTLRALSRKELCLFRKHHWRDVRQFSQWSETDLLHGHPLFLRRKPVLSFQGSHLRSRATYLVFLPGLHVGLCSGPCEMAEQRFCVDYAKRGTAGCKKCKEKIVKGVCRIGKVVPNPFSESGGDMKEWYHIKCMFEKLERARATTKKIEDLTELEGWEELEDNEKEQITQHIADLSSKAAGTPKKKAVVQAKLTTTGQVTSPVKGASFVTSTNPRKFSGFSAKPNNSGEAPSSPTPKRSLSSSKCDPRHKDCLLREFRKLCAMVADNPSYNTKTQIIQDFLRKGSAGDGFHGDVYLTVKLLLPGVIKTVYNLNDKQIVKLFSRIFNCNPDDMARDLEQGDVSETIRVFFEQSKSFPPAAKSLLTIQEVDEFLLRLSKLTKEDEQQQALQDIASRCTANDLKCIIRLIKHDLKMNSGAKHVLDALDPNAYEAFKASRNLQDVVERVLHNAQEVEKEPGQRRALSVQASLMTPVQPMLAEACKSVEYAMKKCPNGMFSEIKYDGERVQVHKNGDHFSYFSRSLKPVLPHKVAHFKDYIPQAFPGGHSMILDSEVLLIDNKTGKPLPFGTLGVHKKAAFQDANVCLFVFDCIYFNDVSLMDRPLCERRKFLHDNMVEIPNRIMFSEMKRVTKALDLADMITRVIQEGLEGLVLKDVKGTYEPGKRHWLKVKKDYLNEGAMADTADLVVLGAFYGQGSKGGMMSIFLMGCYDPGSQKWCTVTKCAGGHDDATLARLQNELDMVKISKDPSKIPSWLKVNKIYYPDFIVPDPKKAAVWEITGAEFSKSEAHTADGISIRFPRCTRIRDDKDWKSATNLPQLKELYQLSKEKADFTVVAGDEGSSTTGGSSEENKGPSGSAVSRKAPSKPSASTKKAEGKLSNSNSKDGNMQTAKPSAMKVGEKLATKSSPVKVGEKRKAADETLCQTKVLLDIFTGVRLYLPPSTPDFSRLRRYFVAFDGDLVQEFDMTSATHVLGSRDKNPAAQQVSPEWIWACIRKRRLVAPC
UniProt O95182, sequence (O95182 whole entry): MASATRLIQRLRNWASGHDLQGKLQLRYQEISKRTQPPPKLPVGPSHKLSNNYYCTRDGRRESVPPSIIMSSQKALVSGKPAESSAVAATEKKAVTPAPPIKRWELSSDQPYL

Row | Target | thermal stability z-score (potassium arsenate) | thermal stability z-score (lipoamide; [1]) | thermal stability z-score (lipoamide; arsenate co-treatment: none)
1 | SRFBP1 (UniProt Q8NEF9) | 0.756 | -0.0373 | -0.0723
2 | FAM129B (UniProt Q96TA1) | -1.01 | 0.659 | 0.517
3 | UBA2 (UniProt Q9UBT2) | -0.426 | -0.378 | -0.166
4 | ARHGEF2 (UniProt Q92974) | 0.444 | -0.182 | 0.0779
5 | FAM91A1 (UniProt Q658Y4) | -0.0432 | -0.0432 | -0.00182
6 | SSR2 (UniProt P43308) | 0.191 | 0.441 | -0.158
7 | BDH2 (UniProt Q9BUT1) | -0.414 | -0.0305 | -0.246
8 | STXBP5 (UniProt Q5T5C0) | 1.77 | 0.208 | 0.496
9 | SIDT2 (UniProt Q8NBJ9) | -1.91 | -1.33 | -1.46
10 | PYGL (UniProt P06737) | -0.513 | 0.968 | 0.345
11 | NSUN4 (UniProt Q96CB9) | -0.318 | -0.26 | 0.337
12 | VPS33B (UniProt Q9H267) | 0.205 | -0.333 | 0.0129
13 | VPS26B (UniProt Q4G0F5) | 0.0841 | 0.123 | -0.118
14 | AZIN1 (UniProt O14977) | 0.62 | 0.745 | 0.806
15 | DCXR (UniProt Q7Z4W1) | 0.528 | 0.346 | -0.203
16 | NDUFA7 (UniProt O95182) | 0.128 | 0.276 | 0.141
17 | LIG3 (UniProt P49916) | -1.05 | -0.0256 | 0.0387
18 | FN3KRP (UniProt Q9HA64) | 0.155 | -0.401 | 0.365

Row | Target | thermal stability z-score (potassium arsenate) | thermal stability z-score (lipoamide; [1]) | thermal stability z-score (lipoamide; arsenate co-treatment: none)
19 | DAP3 (UniProt P51398) | 0.132 | -0.597 | -0.135
20 | SMARCD2 (UniProt Q92925) | -0.0687 | 0.132 | 0.101
21 | RTN4RL2 (UniProt Q86UN3) | 0.417 | -1.87 | -1.25
22 | SMNDC1 (UniProt O75940) | -0.5 | -0.102 | -0.117
23 | TSC22D2 (UniProt O75157) | 1.16 | 1.54 | 0.0633
24 | THOC3 (UniProt Q96J01) | -0.683 | 0.252 | 0.058
25 | TEAD1 (UniProt P28347) | -0.00363 | 0.133 | 0.196
26 | PRPS2 (UniProt P11908) | -1.24 | 0.114 | -0.199
27 | IPO8 (UniProt O15397) | 0.756 | -0.327 | -0.557
28 | NELFE (UniProt P18615) | 0.293 | 0.0818 | 0.467
29 | ERP29 (UniProt P30040) | 0.32 | -0.51 | -0.193
30 | POR (UniProt P16435) | 1.03 | -0.215 | -0.028
31 | GOSR1 (UniProt O95249) | -0.0465 | 0.726 | 0.473
32 | DPH5 (UniProt Q9H2P9) | -0.179 | 0.634 | 1.89
33 | WDR5 (UniProt P61964) | 0.234 | 1.18 | 0.552
34 | LONP2 (UniProt Q86WA8) | 0.393 | -0.55 | -0.13
35 | ACTR6 (UniProt Q9GZN1) | -0.13 | 0.151 | -0.182
36 | PSMC5 (UniProt P62195) | -0.667 | -0.299 | -0.397
